Test results reported in US20250129086A1, “COMPOUND FOR DEGRADING EGFR PROTEIN AND USE THEREOF” (TYK MEDICINES, INC., priority 2021, published 2025).

How the values were obtained:
Type in all cases: cell-based, human
[1] = tested on: H1975 (EGFR L858R/T790M double mutation); assay: Cell antiproliferative assay (CTG, 72 h), H1975; settings: Table 2, H1975 cells
Procedure: (§1) Test Example 1 Cell Antiproliferative Assay
(§2) H1975: with EGFR: L858R/T790M double mutation; PC-9 with EGFR exon 19 deletion, HCC827 with exon 19 deletion mutation. CellCounting-Lite2.0, Trypsin EDTA, 37° C. CO2 incubator, cell counter, EnVision Serial No.1050454. II. Experimental preparation:
(§3) • (A) Trypsin EDTA was used to digest log-phase cells, medium was added to terminate the reaction, and a cell suspension was made by blowing and mixing with a pipette. • (B) Cell concentration was determined using Vi-cell, and a suspension of 15,000-25,000 cells per milliliter was made depending on the purpose of the experiment and the characteristics of the cells. • (C) After the cell suspension was prepared, it was gently mixed and 100 microliters per well was added so that the density of cells to be tested was 1500-2500 per well.
(§4) • (A) About 2 mg of compound was weighed, and the volume of DMSO required was calculated according to the formula: compound mass (mg)*compound purity (%)/compound molecular weight*1000 • (B) The inoculated cell culture plates were incubated in an incubator and the compounds with concentration gradient were added after about 24 hours. • (C)10 Mm of compound stock solution was diluted to […] with medium, and 50 Mm of compound solution was added sequentially to the second column of the deep-well plate, and […] of medium containing 0.5% DMSO was added to the third to eleventh columns. • (D) Gradient dilution: 125 μl of solution was pipetted from the second column and added to the third column, after mixing; another 125 μl of solution was pipetted from the third column and added to the fourth column, and the operation was repeated until the tenth column. • (E)25 μl of compound was pipetted from the deep-well plate into a 96-well culture plate using a multichannel pipette, and each compound was repeated three times on the 96-well plate. A maximum concentration of 10,000 nm with concentration gradient of 1:4 was eventually formed on the 96-well plate.
(§5) • (A)96-well plates were incubated in an incubator for 72 h. The effect of the compounds was observed under an inverted microscope. • (B)25 μl of CTG solution was added to each well, the plate was put on shaker for 10 minutes and the […] of each well was read.
(§6) The cell viability rate (% Cell Viability) was calculated using the following formula: • % Cell Viability=100%×(Lum_Sample-Lum_LC)/(Lum_HC-Lum_LC) • Lum_HC: Cell reading of 0.1% DMSO control • Lum_Sample: Cell reading with compound added • Lum_LC: Reading of Blank media • IC50 values were obtained by curve fitting with GraphPad Prism 8 software.

[2] = tested on: PC-9 (EGFR exon 19 deletion); assay: Cell antiproliferative assay (CTG, 72 h), PC-9; settings: Table 2, PC-9 cells
Procedure: as §1, §2, §3, §4, §5, §6

[3] = tested on: HCC827 (exon 19 deletion mutation); assay: Cell antiproliferative assay (CTG, 72 h), HCC827; settings: Table 2, HCC827 cells
Procedure: as §1, §2, §3, §4, §5, §6

Structure (SMILES)	IC50 ([1]; Homo sapiens, NCI-H1975, 72 h) [nM]	IC50 ([2]; Homo sapiens, PC-9, 72 h) [nM]	IC50 ([3]; Homo sapiens, HCC827, 72 h) [nM]	IC50 [3] [nM]	IC50 [1] [nM]	IC50 [2] [nM]
COc1cc(N2CCN(C(=O)CN3CCC(c4ccc(NC5CCC(=O)NC5=O)cc4)CC3)CC2)ccc1Nc1ncc(Cl)c(Nc2ccccc2)n1 (stereo not drawn) [Compound T-01]	10 to 100	100 to 1000	100 to 1000			
COc1cc(N2CCN(C(=O)CN3CCC(c4ccc(NC5CCC(=O)NC5=O)cc4)CC3)CC2)ccc1Nc1ncc(C(F)(F)F)c(Nc2ccccc2)n1 (stereo not drawn) [Compound T-02]	10 to 100	100 to 1000	≥ 1000			
COc1cc(N2CCN(C(=O)CN3CCC(c4ccc(NC5CCC(=O)NC5=O)cc4F)CC3)CC2)ccc1Nc1ncc(Cl)c(Nc2ccccc2)n1 (stereo not drawn) [Compound T-04]	10 to 100	100 to 1000	≥ 1000			
COc1cc(N2CCN(C(=O)CN3CCC(c4ccc(NC5CCC(=O)NC5=O)cc4)CC3)CC2)ccc1Nc1ncc(Cl)c(Nc2cccc(F)c2)n1 (stereo not drawn) [Compound T-09]	10 to 100	≥ 1000	≥ 1000			
COc1cc(N2CCN(C(=O)CN3CCC(c4ccc5c(N6CCC(=O)NC6=O)nn(C)c5c4)CC3)CC2)ccc1Nc1ncc(Cl)c(Nc2ccccc2)n1 [Compound T-14]	10 to 100	≥ 1000	≥ 1000			
COc1cc(N2CCN(C(=O)CN3CCC(c4ccc(NC5CCC(=O)NC5=O)cc4)CC3)CC2)ccc1Nc1ncc(C(F)(F)F)c(Nc2ccccc2P(C)(C)=O)n1 (stereo not drawn) [Compound T-46]	10 to 100	≥ 1000	100 to 1000			
COc1cc(N2CCN(C(=O)CN3CCC(c4ccc(NC5CCC(=O)NC5=O)cc4)CC3)CC2)ccc1Nc1ncc(C(F)(F)F)c(Nc2ccc(F)cc2)n1 (stereo not drawn) [Compound T-51]	10 to 100	≥ 1000		≥ 1000		
COc1cc(N2CCN(C(=O)CN3CCC(c4ccc(NC5CCC(=O)NC5=O)cc4)CC3)CC2)ccc1Nc1ncc(C(F)(F)F)c(Nc2ccc(F)cc2)n1 (stereo not drawn) [Compound T-52]				100 to 1000	10 to 100	≥ 1000
COc1cc(N2CCN(C(=O)CN3CCC(c4ccc(NC5CCC(=O)NC5=O)cc4)CC3)CC2)c(C)cc1Nc1ncc(C(F)(F)F)c(Nc2ccccc2C(C)=O)n1 (stereo not drawn) [Compound T-58]	10 to 100	100 to 1000	100 to 1000			
COc1cc(N2CCN(C(=O)CN3CCC(c4ccc(NC5CCC(=O)NC5=O)cc4)CC3)CC2)c(C)cc1Nc1ncc(Br)c(Nc2ccccc2C(C)=O)n1 (stereo not drawn) [Compound T-59]	10 to 100	100 to 1000	100 to 1000			
COc1cc(C2CCN(C(=O)CN3CCC(c4ccc(NC5CCC(=O)NC5=O)cc4)CC3)CC2)ccc1Nc1ncc(Cl)c(Nc2ccccc2C(C)=O)n1 (stereo not drawn) [Compound T-69]				100 to 1000	100 to 1000	100 to 1000
COc1cc(N2CCN(C(=O)CN3CCN(c4ccc(NC5CCC(=O)NC5=O)cc4)CC3)CC2)ccc1Nc1ncc(Cl)c(Nc2ccccc2C(C)=O)n1 (stereo not drawn) [Compound T-82]	100 to 1000	≥ 1000	≥ 1000			
COc1cc(N2CCN(C(=O)CN3CCC(c4ccc(NC5CCC(=O)NC5=O)nc4)CC3)CC2)ccc1Nc1ncc(Cl)c(Nc2ccccc2C(C)=O)n1 (stereo not drawn) [Compound T-100]	100 to 1000	100 to 1000	100 to 1000			
COc1cc(N2CCN(C(=O)CN3CCN(c4ccc5c(c4)CN(C4CCC(=O)NC4=O)C5=O)CC3)CC2)ccc1Nc1ncc(Cl)c(Nc2ccccc2C(C)=O)n1 (stereo not drawn) [Compound T-109]	100 to 1000	≥ 1000	≥ 1000			
COc1cc(N2CCN(C(=O)CN3CCC(c4ccc(NC5CCC(=O)NC5=O)cc4)CC3)CC2)c(C)cc1Nc1ncc(Cl)c(Nc2ccccc2)n1 (stereo not drawn) [Compound T-122]	100 to 1000	100 to 1000	100 to 1000			
COc1cc(N2CCN(C(=O)CN3CCC(c4ccc(NC5CCC(=O)NC5=O)cc4)CC3)C(C)C2)ccc1Nc1ncc(Cl)c(Nc2ccccc2)n1 (stereo not drawn) [Compound T-124]	100 to 1000	≥ 1000	≥ 1000			
COc1cc(N2CCN(C(=O)CN3CCC(c4ccc(NC5CCC(=O)NC5=O)cc4)CC3)CC2)ccc1Nc1ncc(Cl)c(Nc2cc(F)ccc2F)n1 (stereo not drawn) [Compound T-132]	100 to 1000	≥ 1000	100 to 1000			
COc1cc(N2CCN(C(=O)CN3CCC(c4ccc(NC5CCC(=O)NC5=O)cc4)CC3)CC2)ccc1Nc1ncc(Cl)c(Nc2cccc(C#N)c2)n1 (stereo not drawn) [Compound T-134]	10 to 100	≥ 1000	≥ 1000			
